From patent US6713493B2, “Use of nicergoline in the treatment of spasticity” (Aventis Pharma S.A., priority 1998, dated 2004)

Tests used:
[1] = test system: stiffness (spasticity) in patients suffering from ALS; assay: Descriptive study on 9 ALS patients: stiffness self-assessed on a 100 mm visual analog scale (VAS) before and after nicergoline; format: in vivo, human (patients)
Procedure: A descriptive study on 9 patients suffering from ALS was carried out. The main criterion defined is the stiffness, measured using a visual analog scale (VAS), of 100 mm, or the individual rates by self-assessment the severity of the stiffness perceived. The patients receive 100 mg/day of riluzole and 15 mg IV of nicergoline on the first day and 30 mg IV on the next 4 days. The duration of infusion was more than 4 hours to avoid any risk of hypotension. The measurement was carried out before and after administration of nicergoline.

[2] = test system: spasticity in amyotrophic lateral sclerosis; conditions: riluzole sold as Rilutek for ALS; cited from earlier work

SMILES | Stiffness (VAS, 100 mm) after administration of nicergoline, mean±standard deviation ([1]; 9 ALS patients on riluzole 100 mg/day, nicergoline 15 mg IV day 1, 30 mg IV next 4 days, measured 4 days later (from 4 to 8 d), stiffness before administration 67.33±25) [mm] | Intra-individual difference in stiffness (VAS) before vs after nicergoline, mean±standard deviation ([1]; 9 ALS patients, same regimen, range −8 to +57, comparison at zero difference significant (t=2.809, p (2α)=0.0229)) [mm] | Effect on pyramidal spasticity of neurological diseases involving an attack of the pyramidal pathway (in words) ([1]; in particular spasticity during ALS) | Effect on spasticity (in words) [2]
CO[C@]12C[C@@H](COC(=O)c3cncc(Br)c3)CN(C)[C@@H]1Cc1cn(C)c3cccc2c13 [nicergoline, (8β)-10-methoxy-1,6-dimethylergoline-8-methanol-5-bromonicotinate] | 48.11±19 | 19.22±20.5 | reduces the pyramidal spasticity | 
Nc1nc2ccc(OC(F)(F)F)cc2s1 [Riluzole, 2-amino-6-trifluoro-methoxybenzothiazole] |  |  |  | no effect on the spasticity
